Results published in patent US5672715A, “Herbicidal substituted 3-aryl-pyrazoles” (Monsanto Company, priority 1995, dated 1997).
“And” between values parts separate entries of the source, which are not always exact repeats. Equal values may be shown once.

Columns and labels:
Format in all cases: in vivo
[1] = system: Bedstraw Catchweed; assay: post-emergence herbicide test; settings: Galium aparine, post-emergence, 0.25 lb/A; read-out: % plant inhibition
Text: (§1) Topsoil was placed in aluminum pans having holes in the bottom and compacted to a depth of 1.3 to 1.6 cm from the top of the pan. A predetermined number of seeds of each of several dicotyledonous and monocotyledonous annual plant species and/or vegetative propagules for the perennial plant species were placed on the soil and pressed into the soil surface. The seeds and/or vegetative propagules were covered with soil and leveled. The pans were then placed on a bench in the greenhouse and watered either from overheard irrigation or by subirrigation as needed. After the plants reach the desired age (two to three weeks), each pan, is removed individually to a spraying chamber and sprayed by means of an atomizer, operating at a spray pressure of 170.3 kPa […] at the application rates noted. In the spray solution was an amount of an emulsifying agent mixture to give a spray solution or suspension which contains about 0.4% by volume of the emulsifier. The spray solution or suspension contained a sufficient amount of the candidate chemical in order to give application rates of the active ingredient corresponding to those shown in Tables 4 and 5, while applying a total amount of solution or suspension equivalent to 1870 L/Ha (200 gallons/acre). […] The post-emergent herbicidal activity shown in these tables is the percent inhibition of each plant species. Testing with warm season and cool season plants is shown in tables 4a-4d and […], respectively.

[2] = system: Common Chickweed; assay: post-emergence herbicide test; settings: post-emergence, 0.25 lb/A; read-out: % plant inhibition
Text: as §1

[3] = system: Birdseye Speedwell; assay: post-emergence herbicide test; settings: post-emergence, 0.25 lb/A; read-out: % plant inhibition
Text: as §1

[4] = system: Seedling Johnsongrass; assay: post-emergence herbicide test; settings: Sorghum halepense, post-emergence, 0.25 lb/A; read-out: % plant inhibition
Text: as §1

[5] = system: Giant Foxtail; assay: post-emergence herbicide test; settings: Setaria faberi, post-emergence, 0.25 lb/A; read-out: % plant inhibition
Text: as §1

[6] = system: Wild Oats; assay: post-emergence herbicide test; settings: Avena fatua, post-emergence, 0.25 lb/A; read-out: % plant inhibition
Text: as §1

[7] = system: Cocklebur; assay: post-emergence herbicide test; settings: Xanthium strumarium, post-emergence, 0.25 lb/A; read-out: % plant inhibition
Text: as §1

[8] = system: Corn; assay: post-emergence herbicide test; settings: Zea mays, post-emergence, 0.25 lb/A; read-out: % plant inhibition
Text: as §1

[9] = system: Green Foxtail; assay: post-emergence herbicide test; settings: Setaria viridis, post-emergence, 0.25 lb/A; read-out: % plant inhibition
Text: as §1

[10] = system: Velvetleaf; assay: post-emergence herbicide test; settings: Abutilon theophrasti, post-emergence, 0.25 lb/A; read-out: % plant inhibition
Text: as §1

[11] = system: Rape; assay: post-emergence herbicide test; settings: post-emergence, 0.25 lb/A; read-out: % plant inhibition
Text: as §1

[12] = system: Morning Glory; assay: post-emergence herbicide test; settings: Ipomoea, post-emergence, 0.25 lb/A; read-out: % plant inhibition
Text: as §1

[13] = system: Soybean; assay: post-emergence herbicide test; settings: Glycine max, post-emergence, 0.25 lb/A; read-out: % plant inhibition
Text: as §1

[14] = system: Wheat; assay: post-emergence herbicide test; settings: Triticum aestivum, post-emergence, 0.25 lb/A; read-out: % plant inhibition
Text: as §1

[15] = system: Downy Brome; assay: post-emergence herbicide test; settings: Bromus tectorum, post-emergence, 0.25 lb/A; read-out: % plant inhibition
Text: as §1

[16] = system: Barnyardgrass; assay: post-emergence herbicide test; settings: Echinochloa crus-galli, post-emergence, 0.25 lb/A; read-out: % plant inhibition
Text: as §1

[17] = system: Blackgrass; assay: post-emergence herbicide test; settings: Alopecurus myosuroides, post-emergence, 0.25 lb/A; read-out: % plant inhibition
Text: as §1

[18] = system: Bedstraw Catchweed; assay: pre-emergence herbicide test; settings: Galium aparine, pre-emergence, 0.25 lb/A; read-out: % plant inhibition
Procedure: (§2) Topsoil was placed in an aluminum pan and compacted to a depth of 1.3 to 1.6 cm from the top of the pan. On the top of the soil was placed a predetermined number of seeds of each of several monocotyledonous and dicotyledonous annual plant species and/or vegetative propagules of various perennial plant species. The pan was then level filled with a cover layer of topsoil to which was added a known amount of active ingredient either prior to or after application of the cover layer. The active ingredient was dissolved or suspended in an organic solvent, e.g., acetone, or water as carrier for application to the cover layer. The pans were moved to a greenhouse bench where they were thereafter watered from below as needed to give adequate moisture for germination and growth. In some cases, an initial overhead irrigation of 1/4 inch of water was applied immediately after treatment.
(§3) Approximately 14 days after seeding and treating, the pans were observed and the results (% inhibition) were recorded.
(§4) The tables below summarize the results of the pre-emergence herbicidal activity tests of compounds of this invention tested with warm season plants (Tables 2a-2d) and cool season plants (Tables 3a and 3b). The herbicidal rating shown in these tables is the percent inhibition of each plant species. The plant species usually regarded as weeds are identified in the tables by single letter headings and crop species identified by two letter headings both headings being above the columns in accordance with the following legend: […]

[19] = system: Common Chickweed; assay: pre-emergence herbicide test; settings: pre-emergence, 0.25 lb/A; read-out: % plant inhibition
Procedure: as §2, §3, §4

[20] = system: Birdseye Speedwell; assay: pre-emergence herbicide test; settings: pre-emergence, 0.25 lb/A; read-out: % plant inhibition
Procedure: as §2, §3, §4

[21] = system: Wild Oats; assay: pre-emergence herbicide test; settings: Avena fatua, pre-emergence, 0.25 lb/A; read-out: % plant inhibition
Procedure: as §2, §3, §4

[22] = system: Green Foxtail; assay: pre-emergence herbicide test; settings: Setaria viridis, pre-emergence; 0.25 lb/A; read-out: % plant inhibition
Procedure: as §2, §3, §4

[23] = system: Velvetleaf; assay: pre-emergence herbicide test; settings: Abutilon theophrasti, pre-emergence, 0.25 lb/A; read-out: % plant inhibition
Procedure: as §2, §3, §4

[24] = system: Rape; assay: pre-emergence herbicide test; settings: pre-emergence, 0.25 lb/A; read-out: % plant inhibition
Procedure: as §2, §3, §4

[25] = system: Soybean; assay: pre-emergence herbicide test; settings: 0.25 lb/A
Procedure: as §2, §3, §4

[26] = system: Wheat; assay: pre-emergence herbicide test; settings: Triticum aestivum, pre-emergence, 0.25 lb/A; read-out: % plant inhibition
Procedure: as §2, §3, §4

[27] = system: Downy Brome; assay: pre-emergence herbicide test; settings: Bromus tectorum, pre-emergence, 0.25 lb/A; read-out: % plant inhibition
Procedure: as §2, §3, §4

[28] = system: Blackgrass; assay: pre-emergence herbicide test; settings: Alopecurus myosuroides, pre-emergence, 0.25 lb/A; read-out: % plant inhibition
Procedure: as §2, §3, §4

[29] = system: Corn; assay: pre-emergence herbicide test; settings: 0.25 lb/A
Procedure: as §2, §3, §4

SMILES | inhibition at 280.212 g/ha [1] | inhibition at 280.212 g/ha [2] | inhibition at 280.212 g/ha [3] | inhibition at 280.212 g/ha [4] | inhibition at 280.212 g/ha [5] | inhibition at 280.212 g/ha [6] | inhibition at 280.212 g/ha [7] | inhibition at 280.212 g/ha [8] | inhibition at 280.212 g/ha [9] | inhibition at 280.212 g/ha [10] | inhibition at 280.212 g/ha [11] | inhibition at 280.212 g/ha [12] | inhibition at 280.212 g/ha [13] | inhibition at 280.212 g/ha [14] | inhibition at 280.212 g/ha [15] | inhibition at 280.212 g/ha [16] | inhibition at 280.212 g/ha [17] | inhibition at 280.212 g/ha [18] | inhibition at 280.212 g/ha [19] | inhibition at 280.212 g/ha [20] | other results
Cc1c(-c2cc(CO)c(Cl)cc2F)nn(C)c1C(F)(F)F [Compound 9, 2-Chloro-5-[1,4-dimethyl-5-(trifluoromethyl)-1H-pyrazol-3-yl]-4-fluorobenzenemethanol] | 50% | 15% | 35% | 20% | 10% | 25% | 35% | 10% | 20% | 95% | 20% | 45% | 60% | 13% | 25% | 25% | 20% | 20% | 90% | 90% | inhibition at 280.212 g/ha [21]: 5%; inhibition at 280.212 g/ha [22]: 100%; inhibition at 280.212 g/ha [23]: 98%; inhibition at 280.212 g/ha [24]: 30%; % plant inhibition [25]: 0%; inhibition at 280.212 g/ha [26]: 0%; inhibition at 280.212 g/ha [27]: 5%; inhibition at 280.212 g/ha [28]: 50%
CC(C)OC(=O)c1cc(-c2nn(C)c(C(F)(F)F)c2C=O)c(F)cc1Cl [Compound 12, 2-Chloro-4-fluoro-5-[4-formyl-1-methyl-5-(trifluoromethyl)-1H-pyrazol-3-yl]benzoic acid, 1-methylethyl ester] | 95% | 100% | 100% | 65% | 35% | 85% | 98% | 15% | 90% | 99% | 100% | 99% | 85% | 30% | 90% | 80% | 50% | 65% | 85% | 80% | inhibition at 280.212 g/ha [21]: 60%; inhibition at 280.212 g/ha [22]: 98%; inhibition at 280.212 g/ha [24]: 15%; inhibition at 280.212 g/ha [26]: 5%; inhibition at 280.212 g/ha [27]: 60%; inhibition at 280.212 g/ha [28]: 60%
Cc1cc(-c2nn(C)c(C(F)(F)F)c2C)c(F)cc1Cl [Compound 33] | 10% | 10% | 15% | 0% | 0% | 5% | 0% | 0% | 15% | 10% | 5% | 10% | 15% | 5% | 5% | 0% | 5% | 45% | 30% | 55% | inhibition at 280.212 g/ha [21]: 5%; % plant inhibition [29]: 10%; inhibition at 280.212 g/ha [22]: 50%; inhibition at 280.212 g/ha [24]: 10%; % plant inhibition [25]: 5% and 0%; inhibition at 280.212 g/ha [26]: 0%; inhibition at 280.212 g/ha [27]: 10%; inhibition at 280.212 g/ha [28]: 40%
